From patent US20230009626A1 (ICHNOS SCIENCES S.A., priority 2018, published 2023)

Target: HPK1 (MAP4K1) (Homo sapiens, UniProt Q92918)
Assay: FRET Assay for HPK1 (MAP4K1): one step binding assay, displacement of labeled tracer
Settings: for inhibition at 1 µM: 1 μM compound; for inhibition at 1 µM / inhibition at 10 µM: FRET ratio 665/620, percent of control; for inhibition at 10 µM: 10 μM compound; for IC50: dose response curve, nonlinear regression
In short: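 TR-FRET tracer-displacement binding assay. GST-tagged HPK1 (10 nM) and Eu-anti-GST antibody (4 nM) were pre-incubated with compound on ice for 15 min in 50 mM HEPES pH 7.5, 10 mM MgCl2, 1 mM EGTA, 0.01% Brij-35 (3% DMSO final). Kinase Tracer 222 (20 nM) was then added for 1 h at room temperature. IC50 came from nonlinear regression of percent of control; percent inhibition was also given at 1.0 and 10.0 μM.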

Sequence of HPK1 (MAP4K1) (Q92918 whole entry): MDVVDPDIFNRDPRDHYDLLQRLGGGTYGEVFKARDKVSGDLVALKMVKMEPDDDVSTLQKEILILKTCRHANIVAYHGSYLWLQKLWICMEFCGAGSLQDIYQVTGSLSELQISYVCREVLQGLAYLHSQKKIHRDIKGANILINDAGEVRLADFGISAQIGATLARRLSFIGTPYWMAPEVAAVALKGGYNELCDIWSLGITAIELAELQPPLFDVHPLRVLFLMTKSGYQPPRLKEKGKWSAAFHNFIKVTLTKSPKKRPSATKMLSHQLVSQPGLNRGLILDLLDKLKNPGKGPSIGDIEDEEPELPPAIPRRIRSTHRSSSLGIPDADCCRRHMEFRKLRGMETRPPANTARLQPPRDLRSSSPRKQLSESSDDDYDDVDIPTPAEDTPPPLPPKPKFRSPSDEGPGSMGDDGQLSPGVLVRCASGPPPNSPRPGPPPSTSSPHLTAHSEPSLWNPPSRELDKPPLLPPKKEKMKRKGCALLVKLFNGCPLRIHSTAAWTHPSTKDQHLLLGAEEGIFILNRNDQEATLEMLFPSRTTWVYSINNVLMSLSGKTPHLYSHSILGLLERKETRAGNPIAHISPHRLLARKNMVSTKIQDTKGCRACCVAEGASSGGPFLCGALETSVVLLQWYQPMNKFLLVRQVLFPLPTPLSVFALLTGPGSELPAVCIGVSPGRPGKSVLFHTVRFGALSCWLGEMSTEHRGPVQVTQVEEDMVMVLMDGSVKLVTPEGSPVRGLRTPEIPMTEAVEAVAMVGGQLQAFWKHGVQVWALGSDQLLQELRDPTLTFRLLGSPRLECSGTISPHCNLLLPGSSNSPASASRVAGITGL

Row | inhibition at 1 µM [%] | inhibition at 10 µM [%] | IC50 [nM] | SMILES
1 | 73.8 | 76.4 | < 50 | COc1cccc(F)c1-c1cc2c(cn1)NC(=O)/C2=C(/C)Nc1ccn(C(C)(C)C#N)n1 [Example 93, (Z)-2-(3-((1-(5-(2-Fluoro-6-methoxyphenyl)-2-oxo-1H-pyrrolo[2,3-c]pyridin-3(2H)-ylidene)ethyl)amino)-1H-pyrazol-1-yl)-2-methylpropanenitrile]
2 | 66.8 | 75.4 | < 50 | CCS(=O)(=O)n1ccc(N/C(C)=C2\C(=O)Nc3cnc(-c4cnccc4C)cc32)n1 [Example 94, (Z)-3-(1-((1-(Ethylsulfonyl)-1H-pyrazol-3-yl)amino)ethylidene)-5-(4-methylpyridin-3-yl)-1H-pyrrolo[2,3-c]pyridin-2(3H)-one]
3 | 75.5 | 75.7 | < 50 | COc1ccncc1-c1cc2c(cn1)NC(=O)/C2=C(/C)Nc1ccn(C(C)(C)C#N)n1 [Example 95, (Z)-2-(3-((1-(5-(4-Methoxypyridin-3-yl)-2-oxo-1H-pyrrolo[2,3-c]pyridin-3(2H)-ylidene)ethyl)amino)-1H-pyrazol-1-yl)-2-methylpropanenitrile]
4 | 68.6 | 73.5 | < 50 | C/C(Nc1ccc(N2CCN(C3CC3)CC2)nc1)=C1/C(=O)Nc2cnc(-c3cnccc3C)cc21 [Example 96, (Z)-3-(1-((6-(4-Cyclopropylpiperazin-1-yl)pyridin-3-yl)amino)ethylidene)-5-(4-methylpyridin-3-yl)-1H-pyrrolo[2,3-c]pyridin-2(3H)-one]
5 | 59 | 59.9 | 100 to 500 | C/C(Nc1ccn(C(C)(C)C(N)=O)n1)=C1/C(=O)Nc2cnc(-c3cnccc3C)cc21 [Example 97, (Z)-2-Methyl-2-(3-((1-(5-(4-methylpyridin-3-yl)-2-oxo-1H-pyrrolo[2,3-c]pyridin-3(2H)-ylidene)ethyl)amino)-1H-pyrazol-1-yl)propanamide]
6 | 61 | 69 | 50 to 100 | C/C(Nc1ccn(C(C)(C)C#N)n1)=C1/C(=O)Nc2cnc(-c3ccccc3C)cc21 [Example 98, (Z)-2-Methyl-2-(3-((1-(2-oxo-5-(o-tolyl)-1H-pyrrolo[2,3-c]pyridin-3(2H)-ylidene)ethyl)amino)-1H-pyrazol-1-yl)propanenitrile]
7 | 70.1 | 78.6 | 50 to 100 | C/C(Nc1ccn(C(C)C)n1)=C1/C(=O)Nc2cnc(-c3cnccc3C)cc21 [Example 99, (Z)-3-(1-((1-Isopropyl-1H-pyrazol-3-yl)amino)ethylidene)-5-(4-methylpyridin-3-yl)-1H-pyrrolo[2,3-c]pyridin-2(3H)-one]
8 | 72.8 | 77 | < 50 | C/C(Nc1ccn(C)n1)=C1/C(=O)Nc2ccc(-c3cnccc3C)cc21 [Example 100, (Z)-3-(1-((1-Methyl-1H-pyrazol-3-yl)amino)ethylidene)-5-(4-methylpyridin-3-yl)indolin-2-one]
9 | 68 | 81.8 | < 50 | C/C(Nc1ccn(CCN2CCOCC2)n1)=C1/C(=O)Nc2cnc(-c3cnccc3C)cc21 [Example 101, (Z)-5-(4-Methylpyridin-3-yl)-3-(1-((1-(2-morpholinoethyl)-1H-pyrazol-3-yl)amino)ethylidene)-1H-pyrrolo[2,3-c]pyridin-2(3H)-one]
10 | 81.6 | 89.7 | < 50 | C/C(Nc1ccn(C2(C#N)CC2)n1)=C1/C(=O)Nc2cnc(-c3cnccc3C)cc21 [Example 102, (Z)-1-(3-((1-(5-(4-Methylpyridin-3-yl)-2-oxo-1H-pyrrolo[2,3-c]pyridin-3(2H)-ylidene)ethyl)amino)-1H-pyrazol-1-yl)cyclopropanecarbonitrile]
